Experimental data from the NIST ThermoML archive (doi:10.1021/je500804j).

Assay: mn = molality of the nth substance listed, in mol/kg
Details: 101 kPa, Liquid, Alternating current cell with electrodes

CCCCCCCC[N+](C)(C)CCCCCC[N+](C)(C)CCCCCCCC.[Br-].[Br-] + O
Details | electrical conductivity [S/m]
288.15 K, m1 = 0.00378 | 0.05571
288.15 K, m1 = 0.00747 | 0.1028
288.15 K, m1 = 0.01106 | 0.1443
288.15 K, m1 = 0.01457 | 0.1827
288.15 K, m1 = 0.01799 | 0.2183
288.15 K, m1 = 0.02133 | 0.252
288.15 K, m1 = 0.02458 | 0.2838
288.15 K, m1 = 0.02776 | 0.3124
288.15 K, m1 = 0.03087 | 0.3407
288.15 K, m1 = 0.0339 | 0.3668
288.15 K, m1 = 0.03687 | 0.3917
288.15 K, m1 = 0.03977 | 0.4158
288.15 K, m1 = 0.0426 | 0.4383
288.15 K, m1 = 0.04537 | 0.4604
288.15 K, m1 = 0.04808 | 0.4812
288.15 K, m1 = 0.05073 | 0.5011
288.15 K, m1 = 0.05333 | 0.521
288.15 K, m1 = 0.05587 | 0.5391
288.15 K, m1 = 0.05835 | 0.555
288.15 K, m1 = 0.06079 | 0.5717
288.15 K, m1 = 0.06318 | 0.5855
288.15 K, m1 = 0.06551 | 0.6042
288.15 K, m1 = 0.0678 | 0.6203
288.15 K, m1 = 0.07005 | 0.6375
288.15 K, m1 = 0.07225 | 0.653
288.15 K, m1 = 0.07441 | 0.6677
288.15 K, m1 = 0.07652 | 0.6826
288.15 K, m1 = 0.0786 | 0.6955
288.15 K, m1 = 0.08064 | 0.7092
288.15 K, m1 = 0.08264 | 0.7199
288.15 K, m1 = 0.0846 | 0.7323
288.15 K, m1 = 0.08652 | 0.7423
288.15 K, m1 = 0.08841 | 0.7524
288.15 K, m1 = 0.09027 | 0.7618
288.15 K, m1 = 0.09209 | 0.7705
288.15 K, m1 = 0.09388 | 0.7794
288.15 K, m1 = 0.09564 | 0.7883
288.15 K, m1 = 0.09737 | 0.7958
288.15 K, m1 = 0.09907 | 0.8039
288.15 K, m1 = 0.1007 | 0.812
288.15 K, m1 = 0.1024 | 0.817
288.15 K, m1 = 0.104 | 0.8214
288.15 K, m1 = 0.1056 | 0.8271
288.15 K, m1 = 0.1071 | 0.8323
288.15 K, m1 = 0.1087 | 0.836
288.15 K, m1 = 0.1102 | 0.8402
288.15 K, m1 = 0.1117 | 0.8452
288.15 K, m1 = 0.1131 | 0.8492
288.15 K, m1 = 0.1146 | 0.8528
288.15 K, m1 = 0.116 | 0.8565
293.15 K, m1 = 0.00416 | 0.07018
293.15 K, m1 = 0.00821 | 0.09599
293.15 K, m1 = 0.01215 | 0.154
293.15 K, m1 = 0.01598 | 0.2062
293.15 K, m1 = 0.01972 | 0.2543
293.15 K, m1 = 0.02336 | 0.2987
293.15 K, m1 = 0.02691 | 0.3399
293.15 K, m1 = 0.03037 | 0.3785
293.15 K, m1 = 0.03374 | 0.415
293.15 K, m1 = 0.03704 | 0.4499
293.15 K, m1 = 0.04025 | 0.4818
293.15 K, m1 = 0.04339 | 0.5127
293.15 K, m1 = 0.04645 | 0.5415
293.15 K, m1 = 0.04944 | 0.5687
293.15 K, m1 = 0.05237 | 0.5953
293.15 K, m1 = 0.05523 | 0.6199
293.15 K, m1 = 0.05802 | 0.6436
293.15 K, m1 = 0.06075 | 0.6658
293.15 K, m1 = 0.06342 | 0.6867
293.15 K, m1 = 0.06604 | 0.707
293.15 K, m1 = 0.06859 | 0.7264
293.15 K, m1 = 0.0711 | 0.7446
293.15 K, m1 = 0.07355 | 0.762
293.15 K, m1 = 0.07595 | 0.7782
293.15 K, m1 = 0.0783 | 0.7934
293.15 K, m1 = 0.0806 | 0.8076
293.15 K, m1 = 0.08285 | 0.8213
293.15 K, m1 = 0.08507 | 0.8335
293.15 K, m1 = 0.08723 | 0.8458
293.15 K, m1 = 0.08936 | 0.8569
293.15 K, m1 = 0.09144 | 0.8677
293.15 K, m1 = 0.09348 | 0.8777
293.15 K, m1 = 0.09549 | 0.8873
293.15 K, m1 = 0.09745 | 0.8958
293.15 K, m1 = 0.09938 | 0.9045
293.15 K, m1 = 0.1013 | 0.9127
293.15 K, m1 = 0.1031 | 0.9206
293.15 K, m1 = 0.105 | 0.9279
293.15 K, m1 = 0.1068 | 0.9349
293.15 K, m1 = 0.1085 | 0.9413
293.15 K, m1 = 0.1103 | 0.9468
293.15 K, m1 = 0.1119 | 0.9533
293.15 K, m1 = 0.1136 | 0.9594
293.15 K, m1 = 0.1153 | 0.9653
293.15 K, m1 = 0.1169 | 0.9709
293.15 K, m1 = 0.1185 | 0.9766
293.15 K, m1 = 0.12 | 0.9819
293.15 K, m1 = 0.1216 | 0.9868
293.15 K, m1 = 0.1231 | 0.9919
293.15 K, m1 = 0.1245 | 0.9968
298.15 K, m1 = 0.00419 | 0.07905
298.15 K, m1 = 0.00827 | 0.1464
298.15 K, m1 = 0.01224 | 0.2076
298.15 K, m1 = 0.0161 | 0.2647
298.15 K, m1 = 0.01987 | 0.3161
298.15 K, m1 = 0.02353 | 0.3644
298.15 K, m1 = 0.02711 | 0.4098
298.15 K, m1 = 0.03059 | 0.4515
298.15 K, m1 = 0.03399 | 0.4914
298.15 K, m1 = 0.0373 | 0.5292
298.15 K, m1 = 0.04053 | 0.5645
298.15 K, m1 = 0.04369 | 0.5979
298.15 K, m1 = 0.04677 | 0.6299
298.15 K, m1 = 0.04978 | 0.6602
298.15 K, m1 = 0.05272 | 0.6887
298.15 K, m1 = 0.05559 | 0.7156
298.15 K, m1 = 0.0584 | 0.7419
298.15 K, m1 = 0.06114 | 0.7666
298.15 K, m1 = 0.06383 | 0.7898
298.15 K, m1 = 0.06645 | 0.812
298.15 K, m1 = 0.06902 | 0.833
298.15 K, m1 = 0.07154 | 0.8526
298.15 K, m1 = 0.074 | 0.8713
298.15 K, m1 = 0.07641 | 0.8887
298.15 K, m1 = 0.07877 | 0.9051
298.15 K, m1 = 0.08108 | 0.9203
298.15 K, m1 = 0.08334 | 0.9348
298.15 K, m1 = 0.08556 | 0.9485
298.15 K, m1 = 0.08773 | 0.9616
298.15 K, m1 = 0.08987 | 0.9739
298.15 K, m1 = 0.09196 | 0.9852
298.15 K, m1 = 0.09401 | 0.9959
298.15 K, m1 = 0.09602 | 1.006
298.15 K, m1 = 0.09799 | 1.016
298.15 K, m1 = 0.09992 | 1.025
298.15 K, m1 = 0.1018 | 1.033
298.15 K, m1 = 0.1037 | 1.042
298.15 K, m1 = 0.1055 | 1.05
298.15 K, m1 = 0.1073 | 1.058
298.15 K, m1 = 0.1091 | 1.066
298.15 K, m1 = 0.1108 | 1.073
298.15 K, m1 = 0.1125 | 1.08
298.15 K, m1 = 0.1142 | 1.087
298.15 K, m1 = 0.1158 | 1.094
298.15 K, m1 = 0.1174 | 1.1
298.15 K, m1 = 0.119 | 1.107
298.15 K, m1 = 0.1206 | 1.112
298.15 K, m1 = 0.1221 | 1.118
298.15 K, m1 = 0.1236 | 1.124
298.15 K, m1 = 0.1251 | 1.13
303.15 K, m1 = 0.00379 | 0.0878
303.15 K, m1 = 0.00748 | 0.1271
303.15 K, m1 = 0.01108 | 0.1968
303.15 K, m1 = 0.01459 | 0.2594
303.15 K, m1 = 0.01801 | 0.3174
303.15 K, m1 = 0.02135 | 0.3714
303.15 K, m1 = 0.02461 | 0.4209
303.15 K, m1 = 0.02779 | 0.4681
303.15 K, m1 = 0.0309 | 0.5124
303.15 K, m1 = 0.03394 | 0.5542
303.15 K, m1 = 0.03691 | 0.5939
303.15 K, m1 = 0.03981 | 0.6314
303.15 K, m1 = 0.04264 | 0.6668
303.15 K, m1 = 0.04542 | 0.7005
303.15 K, m1 = 0.04813 | 0.7326
303.15 K, m1 = 0.05078 | 0.7638
303.15 K, m1 = 0.05338 | 0.7917
303.15 K, m1 = 0.05592 | 0.8194
303.15 K, m1 = 0.05841 | 0.8457
303.15 K, m1 = 0.06085 | 0.8704
303.15 K, m1 = 0.06324 | 0.8926
303.15 K, m1 = 0.06558 | 0.9126
303.15 K, m1 = 0.06787 | 0.9342
303.15 K, m1 = 0.07011 | 0.9547
303.15 K, m1 = 0.07232 | 0.9738
303.15 K, m1 = 0.07448 | 0.9921
303.15 K, m1 = 0.07659 | 1.01
303.15 K, m1 = 0.07867 | 1.026
303.15 K, m1 = 0.08071 | 1.04
303.15 K, m1 = 0.08271 | 1.055
303.15 K, m1 = 0.08467 | 1.069
303.15 K, m1 = 0.0866 | 1.082
303.15 K, m1 = 0.08849 | 1.094
303.15 K, m1 = 0.09034 | 1.107
303.15 K, m1 = 0.09217 | 1.118
303.15 K, m1 = 0.09396 | 1.129
303.15 K, m1 = 0.09572 | 1.139
303.15 K, m1 = 0.09745 | 1.148
303.15 K, m1 = 0.09915 | 1.158
303.15 K, m1 = 0.1008 | 1.168
303.15 K, m1 = 0.1025 | 1.175
303.15 K, m1 = 0.1041 | 1.183
303.15 K, m1 = 0.1057 | 1.191
303.15 K, m1 = 0.1072 | 1.198
303.15 K, m1 = 0.1087 | 1.206
303.15 K, m1 = 0.1103 | 1.215
303.15 K, m1 = 0.1118 | 1.22
303.15 K, m1 = 0.1132 | 1.228
